Data reported in patent US20240156773A1, “METHOD FOR INCREASING BLOOD DECANOIC ACID CONCENTRATION, BLOOD-DECANOIC-ACID-CONCENTRATION-INCREASING AGENT, PHARMACEUTICAL COMPOSITION, AND FOOD COMPOSITION” (The Nisshin OilliO Group, Ltd., priority 2021, published 2024).

Assay: Administration test of triglyceride to rat: blood decanoic acid concentration
Conditions: in vivo, po
Description: Male SD rats aged 7 weeks (Japan SLC, Inc.) were kept using a TPX cage (W21.8×D37.3×H18.1 cm) with three rats or less/cage. The rats were fed ad libitum with solid feed “Labo MR stock” (Nosan Corporation.) sterilized with radiation throughout the feeding period, and fasted about 16 hours before the administration of a test fat and oil sample. The rats were fed ad libitum with distilled water as drinking water using a water supply bottle. The acclimation period was a week, and it was confirmed that abnormalities of general conditions were not observed on the final day of the acclimation period, and body weight was measured using an electronic scale (GX-3000; A & D Company, Limited). The rats were divided into 6 groups for each test fat and oil sample using a grouping software (Statlight; Yukms Co., Ltd.) so that the body weight of the groups was almost equal (6 rats in each group).
Each TG was orally administered in a single dose at 1 mL/body using a 1 mL disposable syringe and a disposable gastric tube for rats. […]
To the extracted lipid fraction, 2 ml of a 0.5 mol/L NaOH-methanol solution was added. […] The hexane layer was transferred to a vial, and used for GC (Agilent Technologies) in the conditions shown in Table 3, and the blood decanoic acid concentration was determined by the internal standard method. […]

- Blood decanoic acid concentration, average value: 124.4 µM
SMILES: CCCCCCCCCC(=O)OCC(COC(=O)CCCCCCCCC)OC(=O)CCCCCCCCC [TG1, tridecanoin]
